Test results as given in patent US20090311237A1, “Combination therapy using a soluble hyaluronidase and a bisphosphonate” (priority 2008, published 2009).
Read-outs that look alike come from different tables or passages of the source.

Legend:
[1] = test system: Sprague Dawley rats; test: Injection site reactions (gross ISR incidence, lesion area) after intradermal injection of zoledronic acid with or without rHuPH20; assay type: in vivo, rat; conditions: for AUC (accumulated ISR area over 6 days) / Peak lesion area: rat ID 0.1 mL, rHuPH20 0 U/mL
Description: A rodent model of local injection site injury caused by ZA injection was employed for the study. […] Injection into the dermis facilitates external visualization and assessment of the irritant.
(§1) Nine to ten week old female Sprague Dawley rats, having approximate body weight of 200-250 grams, were employed for the study. One day prior to injection, rats were shaved and hair on the back and flank area were removed by Nair® cream (exposure less than 1 min to depilation cream) followed by deep wash with warm tap water. On the day of dosing, all rats were injected intradermally in flank area (one or two injection spots per side), with 0.1 or 0.2 mL as indicated of zoledronic acid solution, with or without rHuPH20, at each corresponding concentration as shown in study design table. Injection site appearance was observed and quantified by blind assessment each day following the injection until the end of the study, at which time animals were sacrificed and the skin around the dosing area as well as a part of the skin that was not effected by the dosing were collected and fixed in 10% neutral buffered formalin (NBF) and further embedded in paraffin, 5 μm sections were cut for H&E stain and histopathology evaluation.
(§2) Lesion area was calculated by the following formula: W×L×¼π. Quantitative results were analyzed using one-way analysis of variance (ANOVA) method, followed by Dunnett's comparison method (Prizm 4 program). The probability values of less than 0.05 (two-tailed) were used as the critical level of significance for all tests. Groups with a sample size of two were excluded from analysis. If the sample size was 2 for the control group, there were no statistical analyses at that interval for any of the groups. Histopathologic findings were characterized by semi-quantitative analysis of necrosis and infiltration in the skin tissue. The incidences of each finding were compared with control groups by Chi-square test.
(§3) Prior to ZA intradermal injection, rats were randomized by body weight into 7 groups of 1 or 2 rats per group (Table 2). Rats were injected with either 0.1 mL or 0.2 mL of each corresponding concentration intradermally at two separate locations on each shaved flank side for a total of 4 injections for each animal. Injection sites were observed daily post-injection for four days. Pictures of injection site reaction (ISR) area were captured by digital camera and lesion area was scored for induration, erythema, or ulceration. Two perpendicular diameters (width & length) of injection site lesion were measured by microcaliper. The lesion area was defined as the area bounded by the outer edge of the erythemic zone. Upon completion of the study, the animals were euthanized and skin at the injection site and from an untreated area of the back of the rat were excised, mounted flat onto a piece of cardboard, and placed in 10% NBF.
(§4) A series of experiments were conducted in which various dosing concentrations of rHuPH20 were tested for the ability to reduce acute injection site lesions. Prior to ZA intra-dermal injection, rats were randomized by body weight into 11 groups of 2 rats per group. Rats were injected intradermally with 0.1 mL of each co-formulated solution as shown in Table 5 and observed daily with ISR development assessed as in Section B. Four days after injection, rats were sacrificed and the skin at the injection site as well as untreated skin from the back was excised, mounted flat onto a piece of cardboard, and placed in 10% NBF.
Prior to ZA intra-dermal injection, rats were randomized by body weight into 6 groups of 3 rats per group (Table 6). Rats were intradermally injected with 0.1 mL of each corresponding co-formulated solution at two separate locations, two on each shaved flank side, for a total of 4 injections for each animal. Injection sites were observed daily with ISR development assessed as in Section B for 6 days. […]

[2] = cited from earlier work; for IV MRT: IV […] infusion, calculated from published ZA PK data
[3] = test system: Sprague Dawley rats; test: Semi-quantitative histopathology of skin at injection site after ID zoledronic acid with or without rHuPH20; assay type: in vivo; parameters: key to Necrosis: Mid-dermis / Infiltration: Focal / Infiltration: Muscular / Necrosis: Epidermis / Infiltration: Skin Diffuse / Infiltration: Muscle: —: Dash indicates no incidence of indicated finding; key to Infiltration: Skin Focal: —: Dash indicates no incidence of the indicated observation; conditions: rat ID, 4 days
Description: as §1, §2, §3
as §4, with “NBF. […]” for “NBF.”

[4] = test system: Sprague Dawley rats; test: as above; assay type: in vivo; parameters: key: —: Dash indicates no incidence of the indicated observation; conditions: rat ID; ZA 0.4 mg/mL; rHuPH20 0 U/ml; 4 days
Description: as §1
(§5) Lesion area was calculated by the following formula: W×L×¼π. Quantitative results were analyzed using one-way analysis of variance (ANOVA) method, followed by Dunnett's comparison method (Prizm 4 program). […] Histopathologic findings were characterized by semi-quantitative analysis of necrosis and infiltration in the skin tissue. […]

[5] = test system: Sprague Dawley rats; test: as above; assay type: in vivo; parameters: key: —: Dash indicates no incidence of indicated finding; conditions: rat ID, 4 days
Description: as §1, §5

[6] = test system: Sprague Dawley rats; test: Injection site reaction recovery study (10 days) after ID ZA with or without rHuPH20; assay type: in vivo, rat
Description: Sprague Dawley rats were randomized to three groups of 4 rats each. ZA (0.1 ml at 0.1 mg/mL), either alone or supplemented with either 130 U/mL or 100,000 U/mL rHuPH20, was given via intradermal injection. Injection sites were observed and measured daily. Animals were sacrificed at 10 days post-injection and skin from lesion areas were dissected, fixed in 10% buffered formalin, embedded in paraffin and stained with H&E.

Q: Which results are given for `O=P(O)(O)C(O)(Cn1ccnc1)P(=O)(O)O` [ZA, 1-hydroxy-2-(1H-imidazol-1-yl)ethylidene-1,1-bisphosphonic acid]?
A: AUC (accumulated ISR area over 6 days) ([1]; ZA 0.05 mg/mL): 110.8 ± 5.6 mm^2 · day; Peak lesion area ([1]; ZA 0.05 mg/mL): 28.8 ± 1.8 mm^2; AUC (accumulated ISR area over 6 days) ([1]; ZA 0.1 mg/mL): 108.3 ± 6.9 mm^2 · day; Peak lesion area ([1]; ZA 0.1 mg/mL): 32.3 ± 2.7 mm^2; AUC (accumulated ISR area over 6 days) ([1]; ZA 0.4 mg/mL): 226.5 ± 9.1 mm^2 · day; Peak lesion area ([1]; ZA 0.4 mg/mL): 62.9 ± 5.1 mm^2; erythema area ([1]; rat ID, ZA alone 0.05-0.2 mg/ml): ~35 mm^2; IV MRT ([2]; adjusted to match SC dose 0.25 mg): 1.9010 h; IV MRT ([2]; adjusted to match SC dose 0.5 mg): 2.2330 h; IV MRT ([2]; adjusted to match SC dose 1 mg): 5.2494 h; IV MRT ([2]; adjusted to match SC dose 5 mg): 9.1957 h; terminal γ phase half-life (T½γ) ([2]; man, IV): ~146 h; Infiltration: Muscle ([3]; ZA 0.05 mg/mL, rHuPH20 0 U/ml): —; Infiltration: Skin Diffuse ([3]; ZA 0.05 mg/mL, rHuPH20 0 U/ml): —; Necrosis: Epidermis ([3]; ZA 0.05 mg/mL, rHuPH20 0 U/ml): —; Infiltration: Skin Focal ([3]; ZA 0.4 mg/mL, rHuPH20 0 U/ml): —; Infiltration: Muscular ([3]; ZA alone 0.05 mg/mL): —; Necrosis: Mid-dermis ([3]; ZA alone 0.05 mg/mL): —; Infiltration: Focal ([3]; ZA alone 0.1 mg/mL): —; Necrosis: Mid-dermis ([3]; ZA alone 0.1 mg/mL): —; Infiltration: Focal ([3]; ZA alone 0.2 mg/mL): —; Necrosis: Mid-dermis ([3]; ZA alone 0.2 mg/mL): —; Infiltration: Focal ([3]; ZA alone 0.4 mg/mL): —; Infiltration: Focal ([3]; ZA alone 0.6 mg/mL): —; Infiltration: Focal ([3]; ZA alone 0.8 mg/mL): —; Necrosis: Superficial dermis [4]: —; Necrosis: Superficial dermis ([5]; ZA alone 0.05 mg/mL): —; Necrosis: Superficial dermis ([5]; ZA alone 0.1 mg/mL): —; time to peak lesion area ([6]; rat ID 0.1 ml, ZA 0.1 mg/mL alone or with 130 or 100,000 U/mL rHuPH20): 3 days; histopathologic findings ([6]; rat ID, ZA 0.1 mg/mL alone, 10 days post-injection): scabbing, epidermal necrosis, infiltration, vessel dilation and hemorrhage
